target: T1, recombinant human ASK1 protein (Homo sapiens, UniProt Q99683); assay: Evaluation of ASK1 inhibition activity ([gamma-33P]-ATP, scintillation counting); assay type: biochemical; details: not given
T1 sequence (Q99683 1-1374): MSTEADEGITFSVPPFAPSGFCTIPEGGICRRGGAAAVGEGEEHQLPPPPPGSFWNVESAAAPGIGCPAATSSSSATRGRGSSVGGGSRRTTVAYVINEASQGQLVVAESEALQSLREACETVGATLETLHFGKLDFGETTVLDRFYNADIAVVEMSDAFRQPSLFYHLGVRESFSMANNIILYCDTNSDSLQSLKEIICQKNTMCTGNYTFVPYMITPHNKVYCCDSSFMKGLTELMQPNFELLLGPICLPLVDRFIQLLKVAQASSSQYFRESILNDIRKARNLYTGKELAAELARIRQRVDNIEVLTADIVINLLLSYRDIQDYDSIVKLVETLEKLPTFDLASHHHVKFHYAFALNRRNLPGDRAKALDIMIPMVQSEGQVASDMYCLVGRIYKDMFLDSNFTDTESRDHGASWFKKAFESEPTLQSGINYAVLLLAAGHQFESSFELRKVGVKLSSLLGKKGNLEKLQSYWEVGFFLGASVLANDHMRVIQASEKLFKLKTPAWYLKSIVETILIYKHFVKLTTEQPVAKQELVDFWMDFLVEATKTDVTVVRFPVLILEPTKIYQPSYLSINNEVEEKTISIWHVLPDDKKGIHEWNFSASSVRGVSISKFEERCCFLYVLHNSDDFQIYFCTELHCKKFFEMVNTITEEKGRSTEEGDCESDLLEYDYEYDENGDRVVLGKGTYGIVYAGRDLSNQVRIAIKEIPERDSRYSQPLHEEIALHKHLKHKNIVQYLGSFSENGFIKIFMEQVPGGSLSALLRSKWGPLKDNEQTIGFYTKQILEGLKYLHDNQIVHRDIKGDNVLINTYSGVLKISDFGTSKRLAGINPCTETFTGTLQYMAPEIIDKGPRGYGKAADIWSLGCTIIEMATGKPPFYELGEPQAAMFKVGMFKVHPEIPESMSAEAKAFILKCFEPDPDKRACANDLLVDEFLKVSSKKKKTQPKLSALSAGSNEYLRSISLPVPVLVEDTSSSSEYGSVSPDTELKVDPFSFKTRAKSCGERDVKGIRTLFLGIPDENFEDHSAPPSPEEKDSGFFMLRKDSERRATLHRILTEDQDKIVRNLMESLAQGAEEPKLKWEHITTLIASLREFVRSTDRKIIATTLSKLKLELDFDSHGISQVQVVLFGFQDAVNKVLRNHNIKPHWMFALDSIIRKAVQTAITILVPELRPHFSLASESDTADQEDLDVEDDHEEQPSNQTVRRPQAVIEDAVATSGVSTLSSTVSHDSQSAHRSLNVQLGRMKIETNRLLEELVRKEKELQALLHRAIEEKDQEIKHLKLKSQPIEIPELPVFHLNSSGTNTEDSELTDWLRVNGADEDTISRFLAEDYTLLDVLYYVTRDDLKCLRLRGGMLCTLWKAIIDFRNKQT
Procedure: The recombinant human ASK1 protein was initiated by adding a mixture of Mg/ATP to the reaction solution (8 mM MOPS PH 7.0, 0.2 mM EDTA, 0.33 mg/mL myelin basic protein, 10 mM Mg Acetate and [gamma-33P]-ATP), and the reaction was terminated by adding 0.5% phosphoric acid after 40 min at room temperature.

Row | SMILES | IC50
1 | Cc1cc(F)c(C(=O)Nc2cccc(-n3nnc4c3CCCCCC4)n2)cc1-n1cnc(C2CC2)c1 [Example 5, 5-(4-cyclopropyl-1H-imidazole-1-yl)-2-fluoro-N-(6-(4,5,6,7,8,9-hexahydro-1H-cycloocta[d][1,2,3]triazole-1-yl)pyridine-2-yl)-4-methylbenzamide] | 198 nM
2 | Cc1cc(F)c(C(=O)Nc2cccc(-n3nnc4ccccc43)n2)cc1-n1cnc(C2CC2)c1 [Example 1, N-(6-(1H-benzo[d][1,2,3]triazole-1-yl)pyridine-2-yl)-5-(4-cyclopropyl-1H-imidazole-1-yl)-2-fluoro-4-methylbenzamide] | 235 nM

same assay, conditions: 0.5 uM; activity of group without compound set at 100%; read-out: Remaining kinase activity (%) at 0.5 uM

Row | SMILES | remaining activity at 0.5 µM
3 | O=C(Nc1cccc(-n2nnc3c2CCCC3)n1)c1cc(-n2cnc(C3CC3)c2)ccc1OC1CC1 [Example 23, 2-cyclopropoxy-5-(4-cyclopropyl-1H-imidazol-1-yl)-N-(6-(4,5,6,7-tetrahydro-1H-benzo[d][1,2,3]triazol-1-yl)pyridin-2-yl)benzamide] | 38%
4 | O=C(Nc1cccc(-n2nnc3c2CCCC3)n1)c1cc(-n2cnc(C3CC3)c2)ccc1OC(F)F [Example 27] | 4%
5 | CC(C)Oc1ccc(-n2cnc(C3CC3)c2)cc1C(=O)Nc1cccc(-n2nnc3c2CCC3)n1 [Example 18, 5-(4-cyclopropyl-1H-imidazol-1-yl)-N-(6-(5,6-dihydrocyclopenta[d][1,2,3]triazol-1 (4H)-yl)pyridin-2-yl)-2-isopropoxybenzamide] | 11%
6 | COc1cc(C)c(-n2cnc(C3CC3)c2)cc1C(=O)Nc1cccc(-n2nnc3c2CCC3)n1 [Example 8, 5-(4-cyclopropyl-1H-imidazol-1-yl)-N-(6-(5,6-dihydrocyclopenta[d][1,2,3]triazol-1 (4H)-yl)pyridin-2-yl)-2-methoxy-4-methylbenzamide] | 0%
7 | COc1ccc(-n2cnc(C3CC3)c2)cc1C(=O)Nc1cccc(-n2nnc3c2CCC3)n1 [Example 6, 5-(4-cyclopropyl-1H-imidazol-1-yl)-N-(6-(5,6-dihydrocyclopenta[d][1,2,3]triazol-1 (4H)-yl)pyridin-2-yl)-2-methoxybenzamide] | 0%
8 | O=C(Nc1cccc(-n2nnc3c2CCC3)n1)c1cc(-n2cnc(C3CC3)c2)ccc1OC(F)(F)F [Example 24, 5-(4-cyclopropyl-1H-imidazol-1-yl)-N-(6-(5,6-dihydrocyclopenta[d][1,2,3]triazol-1 (4H)-yl)pyridin-2-yl)-2-(trifluoromethoxy)benzamide] | 5%
9 | CCOc1ccc(-n2cnc(C3CC3)c2)cc1C(=O)Nc1cccc(-n2nnc3c2CCC3)n1 [Example 16, 5-(4-cyclopropyl-1H-imidazol-1-yl)-N-(6-(5,6-dihydrocyclopenta[d][1,2,3]triazol-1 (4H)-yl)pyridin-2-yl)-2-ethoxybenzamide] | 11%
10 | Cc1cc(OC(F)F)c(C(=O)Nc2cccc(-n3nnc4c3CCC4)n2)cc1-n1cnc(C2CC2)c1 [Example 14, 5-(4-cyclopropyl-1H-imidazol-1-yl)-2-(difluoromethoxy)-N-(6-(5,6-dihydrocyclopenta[d][1,2,3]triazol-1 (4H)-yl)pyridin-2-yl)-4-methylbenzamide] | 1%
11 | O=C(Nc1cccc(-n2nnc3c2CCC3)n1)c1cc(-n2cnc(C3CC3)c2)ccc1OC1CC1 [Example 22, 2-cyclopropoxy-5-(4-cyclopropyl-1H-imidazol-1-yl)-N-(6-(5,6-dihydrocyclopenta[d][1,2,3]triazol-1 (4H)-yl)pyridin-2-yl)benzamide] | 24%
12 | Cc1cc(OC(F)F)c(C(=O)Nc2cccc(-n3nnc4c3CCCC4)n2)cc1-n1cnc(C2CC2)c1 [Example 15, 5-(4-cyclopropyl-1H-imidazol-1-yl)-2-(difluoromethoxy)-4-methyl-N-(6-(4,5,6,7-tetrahydro-1H-benzo[d][1,2,3]triazol-1-yl)pyridin-2-yl)benzamide] | 8%
13 | CCOc1ccc(-n2cnc(C3CC3)c2)cc1C(=O)Nc1cccc(-n2nnc3c2CCCC3)n1 [Example 17, 5-(4-cyclopropyl-1H-imidazol-1-yl)-2-ethoxy-N-(6-(4,5,6,7-tetrahydro-1H-benzo[d][1,2,3]triazol-1-yl)pyridin-2-yl)benzamide] | 2%
14 | Cc1cc(F)c(C(=O)Nc2cccc(-n3nnc4ccccc43)n2)cc1-n1cnc(C2CC2)c1 [Example 1, N-(6-(1H-benzo[d][1,2,3]triazole-1-yl)pyridine-2-yl)-5-(4-cyclopropyl-1H-imidazole-1-yl)-2-fluoro-4-methylbenzamide] | 14%
15 | Cc1cc(OC(C)C)c(C(=O)Nc2cccc(-n3nnc4c3CCCC4)n2)cc1-n1cnc(C2CC2)c1 [Example 13, 5-(4-cyclopropyl-1H-imidazol-1-yl)-2-isopropoxy-4-methyl-N-(6-(4,5,6,7-tetrahydro-1H-benzo[d][1,2,3]triazol-1-yl)pyridin-2-yl)benzamide] | 9%
16 | O=C(Nc1cccc(-n2nnc3c2CCCC3)n1)c1cc(-n2cnc(C3CC3)c2)ccc1OCC(F)(F)F [Example 21, 5-(4-cyclopropyl-1H-imidazol-1-yl)-N-(6-(4,5,6,7-tetrahydro-1H-benzo[d][1,2,3]triazol-1-yl)pyridin-2-yl)-2-(2,2,2-trifluoroethoxy)benzamide] | 16%
17 | CC(C)Oc1ccc(-n2cnc(C3CC3)c2)cc1C(=O)Nc1cccc(-n2nnc3c2CCCC3)n1 [Example 19, 5-(4-cyclopropyl-1H-imidazol-1-yl)-2-isopropoxy-N-(6-(4,5,6,7-tetrahydro-1H-benzo[d][1,2,3]triazol-1-yl)pyridin-2-yl)benzamide] | 9%
18 | CCOc1cc(C)c(-n2cnc(C3CC3)c2)cc1C(=O)Nc1cccc(-n2nnc3c2CCC3)n1 [Example 10, 5-(4-cyclopropyl-1H-imidazol-1-yl)-N-(6-(5,6-dihydrocyclopenta[d][1,2,3]triazol-1 (4H)-yl)pyridin-2-yl)-2-ethoxy-4-methylbenzamide] | 14%
19 | O=C(Nc1cccc(-n2nnc3c2CCCC3)n1)c1cc(-n2cnc(C3CC3)c2)ccc1OC(F)(F)F [Example 25, 5-(4-cyclopropyl-1H-imidazol-1-yl)-N-(6-(4,5,6,7-tetrahydro-1H-benzo[d][1,2,3]triazol-1-yl)pyridin-2-yl)-2-(trifluoromethoxy)benzamide] | 14%
20 | O=C(Nc1cccc(-n2nnc3c2CCC3)n1)c1cc(-n2cnc(C3CC3)c2)ccc1OCC(F)(F)F [Example 20, 5-(4-cyclopropyl-1H-imidazol-1-yl)-N-(6-(5,6-dihydrocyclopenta[d][1,2,3]triazol-1 (4H)-yl)pyridin-2-yl)-2-(2,2,2-trifluoroethoxy)benzamide] | 3%
21 | COc1ccc(-n2cnc(C3CC3)c2)cc1C(=O)Nc1cccc(-n2nnc3c2CCCC3)n1 [Example 7, 5-(4-cyclopropyl-1H-imidazol-1-yl)-2-methoxy-N-(6-(4,5,6,7-tetrahydro-1H-benzo[d][1,2,3]triazol-1-yl)pyridin-2-yl)benzamide] | 2%
22 | Cc1cc(OC(C)C)c(C(=O)Nc2cccc(-n3nnc4c3CCC4)n2)cc1-n1cnc(C2CC2)c1 [Example 12, 5-(4-cyclopropyl-1H-imidazol-1-yl)-N-(6-(5,6-dihydrocyclopenta[d][1,2,3]triazol-1 (4H)-yl)pyridin-2-yl)-2-isopropoxy-4-methylbenzamide] | 0%
23 | COc1cc(C)c(-n2cnc(C3CC3)c2)cc1C(=O)Nc1cccc(-n2nnc3c2CCCC3)n1 [Example 9, 5-(4-cyclopropyl-1H-imidazol-1-yl)-2-methoxy-4-methyl-N-(6-(4,5,6,7-tetrahydro-1H-benzo[d][1,2,3]triazol-1-yl)pyridin-2-yl)benzamide] | 0%
24 | CCOc1cc(C)c(-n2cnc(C3CC3)c2)cc1C(=O)Nc1cccc(-n2nnc3c2CCCC3)n1 [Example 11, 5-(4-cyclopropyl-1H-imidazol-1-yl)-2-ethoxy-4-methyl-N-(6-(4,5,6,7-tetrahydro-1H-benzo[d][1,2,3]triazol-1-yl)pyridin-2-yl)benzamide] | 29%

— patent US20260138969A1 (Korea Research Institute of Chemical Technology, priority 2023, published 2026)
